In US20020052295A1, “Diacyl derivatives of propylene diamine having herbicidal activity” (priority 1999, published 2002):

Tests used:
Settings in all cases: lowest tested rate giving 80% or greater inhibition, approx. 14 days after planting and treating, greenhouse
CHEAL = assay: Pre-emergence herbicidal activity on CHEAL (common lambsquarters); type: in vivo, Chenopodium album
Outline: (§1)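 GR80 from percent growth inhibition versus untreated controls, rated about 14 days after planting and pre-emergence soil-surface application. Compound applied in 50:50 acetone:water over freshly covered seeds; pots kept in greenhouse at 30/21 °C day/night.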

SOLNI = assay: Pre-emergence herbicidal activity on SOLNI (black nightshade); type: in vivo, Solanum nigrum
Outline: as §1

PANMI = assay: Pre-emergence herbicidal activity on PANMI (wild proso millet); type: in vivo, Panicum miliaceum
Outline: as §1

PANDI = assay: Pre-emergence herbicidal activity on PANDI (fall panicum); type: in vivo, Panicum dichotomiflorum
Outline: as §1

AMARE = assay: Pre-emergence herbicidal activity on AMARE (redroot pigweed); type: in vivo, Amaranthus retroflexus
Outline: as §1

SORVU = assay: Pre-emergence herbicidal activity on SORVU (shattercane); type: in vivo, Sorghum vulgare
Excerpt: All such uses, and the biological activity enabling such uses, are embraced by the term “herbicidal” herein. Tables 15 and 16 summarize results of tests conducted as described below to determine the pre-emergence herbicidal activity, in the form of a GR80 value, of illustrative compounds of this invention. […] Where herbicidal activity was evident but 80% inhibition was not achieved at the highest rate tested (typically 1000 g/ha), an asterisk (*) is shown in the following tables. Herbicidal activity evident in the form of symptoms of phytotoxicity, in the absence of at least 80% inhibition at any rate, is indicated in the tables by “phyto”. A blank cell in the following tables indicates no herbicidal or phytotoxic response at any rate tested.
The pre-emergence tests were conducted by the following procedure. Topsoil was sieved to pass through a 1.27 cm screen. Fertilizer was added to the topsoil and the mixture was then sterilized by heating. The topsoil mixture was placed in a pot and compacted to a depth of 1.0 to 1.25 cm from the top of the pot. Seeds of each of several monocotyledonous and dicotyledonous annual plant species were placed on top of the soil. Additional soil was subsequently placed over the seeds to level-fill the pot. A known amount of each test compound dissolved or suspended in an appropriate organic solvent was diluted with a 50:50 mix of acetone and water and applied to the surface of the soil. After treatment the plants were placed in a greenhouse with a 30/21° C. day/night temperature regime where they received 0.64 cm of overhead irrigation. All subsequent watering consisted of a light overhead mist and/or subirrigation as needed for germination and growth.
Approximately 14 days after planting and treating, the plants were observed and herbicidal efficacy recorded as percent inhibition by comparison with untreated plants.
The plant species usually regarded as weeds which were utilized in the tests are identified in the tables below according to the following legend, in which “d” indicates a dicotyledonous species and “m” a monocotyledonous species. All monocotyledonous species included in the tests herein are grasses.

ECHCG = assay: Pre-emergence herbicidal activity on ECHCG (barnyardgrass); type: in vivo, Echinochloa crus-galli
Outline: as §1

CONAR = assay: Pre-emergence herbicidal activity on CONAR (field bindweed); type: in vivo, Convolvulus arvensis
Outline: as §1

DIGSA = assay: Pre-emergence herbicidal activity on DIGSA (large crabgrass); type: in vivo, Digitaria sanguinalis
Outline: as §1

SETFA = assay: Pre-emergence herbicidal activity on SETFA (giant foxtail); type: in vivo, Setaria faberi
Outline: as §1

DATST = assay: Pre-emergence herbicidal activity on DATST (jimsonweed); type: in vivo, Datura stramonium
Outline: as §1

BRAPP = assay: Pre-emergence herbicidal activity on BRAPP (broadleaf signalgrass); type: in vivo, Brachiaria platyphylla
Outline: as §1

ABUTH = assay: Pre-emergence herbicidal activity on ABUTH (velvetleaf); type: in vivo, Abutilon theophrasti
Outline: as §1

SORHA = assay: Pre-emergence herbicidal activity on SORHA (johnsongrass, seedling); type: in vivo, Sorghum halepense
Outline: as §1

CIRAR = assay: Pre-emergence herbicidal activity on CIRAR (canada thistle, seedling); type: in vivo, Cirsium arvense
Outline: as §1

POROL = assay: Pre-emergence herbicidal activity on POROL (common purslane); type: in vivo, Portulaca oleracea
Outline: as §1

SMILES: CC(CNC(=O)c1cccc(C(F)(F)F)c1)NC(=O)c1cccc(C(F)(F)F)c1Cl (centres unmarked) [Example 14]
- Pre-emergence activity (GR80) on CHEAL (CHEAL): 64 g/ha
- Pre-emergence activity (GR80) on SOLNI (SOLNI): 125 g/ha
- Pre-emergence activity (GR80) on PANMI (PANMI): 500 g/ha
- Pre-emergence activity (GR80) on PANDI (PANDI): 250 g/ha
- Pre-emergence activity (GR80) on AMARE (AMARE): 125 g/ha
- Pre-emergence activity (GR80) on SORVU (SORVU): phyto
- Pre-emergence activity (GR80) on ECHCG (ECHCG): 1000 g/ha
- Pre-emergence activity (GR80) on CONAR (CONAR): 125 g/ha
- Pre-emergence activity (GR80) on DIGSA (DIGSA): 125 g/ha
- Pre-emergence activity (GR80) on SETFA (SETFA): 250 g/ha
- Pre-emergence activity (GR80) on DATST (DATST): 64 g/ha
- Pre-emergence activity (GR80) on BRAPP (BRAPP): 500 g/ha
- Pre-emergence activity (GR80) on ABUTH (ABUTH): 250 g/ha
- Pre-emergence activity (GR80) on SORHA (SORHA): 500 g/ha
- Pre-emergence activity (GR80) on CIRAR (CIRAR): 64 g/ha
- Pre-emergence activity (GR80) on PORAL (POROL): 125 g/ha

SMILES: CC(CNC(=O)c1cccc(C(F)(F)F)c1)NC(=O)c1ccccc1Cl (centres unmarked) [Example 103]
- Pre-emergence activity (GR80) on CHEAL (CHEAL): 500 g/ha
- Pre-emergence activity (GR80) on SOLNI (SOLNI): 250 g/ha
- Pre-emergence activity (GR80) on PANMI (PANMI): 1000 g/ha
- Pre-emergence activity (GR80) on PANDI (PANDI): 500 g/ha
- Pre-emergence activity (GR80) on AMARE (AMARE): 125 g/ha
- Pre-emergence activity (GR80) on SORVU (SORVU): phyto
- Pre-emergence activity (GR80) on ECHCG (ECHCG): phyto
- Pre-emergence activity (GR80) on CONAR (CONAR): * (Where herbicidal activity was evident but 80% inhibition was not achieved at the highest rate tested (typically 1000 g/ha), an asterisk (*) is shown)
- Pre-emergence activity (GR80) on DIGSA (DIGSA): 500 g/ha
- Pre-emergence activity (GR80) on SETFA (SETFA): 500 g/ha
- Pre-emergence activity (GR80) on DATST (DATST): 500 g/ha
- Pre-emergence activity (GR80) on BRAPP (BRAPP): 750 g/ha
- Pre-emergence activity (GR80) on ABUTH (ABUTH): 750 g/ha
- Pre-emergence activity (GR80) on SORHA (SORHA): 500 g/ha
- Pre-emergence activity (GR80) on CIRAR (CIRAR): 750 g/ha
- Pre-emergence activity (GR80) on PORAL (POROL): 125 g/ha

SMILES: Cc1c(F)cccc1C(=O)NC(C)CNC(=O)c1cccc(C(F)(F)F)c1 (centres unmarked) [Example 38]
- Pre-emergence activity (GR80) on CHEAL (CHEAL): 64 g/ha
- Pre-emergence activity (GR80) on SOLNI (SOLNI): 250 g/ha
- Pre-emergence activity (GR80) on PANMI (PANMI): 250 g/ha
- Pre-emergence activity (GR80) on PANDI (PANDI): 250 g/ha
- Pre-emergence activity (GR80) on AMARE (AMARE): 32 g/ha
- Pre-emergence activity (GR80) on SORVU (SORVU): * (Where herbicidal activity was evident but 80% inhibition was not achieved at the highest rate tested (typically 1000 g/ha), an asterisk (*) is shown)
- Pre-emergence activity (GR80) on ECHCG (ECHCG): 1000 g/ha
- Pre-emergence activity (GR80) on CONAR (CONAR): 250 g/ha
- Pre-emergence activity (GR80) on DIGSA (DIGSA): 125 g/ha
- Pre-emergence activity (GR80) on SETFA (SETFA): 250 g/ha
- Pre-emergence activity (GR80) on DATST (DATST): 125 g/ha
- Pre-emergence activity (GR80) on BRAPP (BRAPP): 250 g/ha
- Pre-emergence activity (GR80) on ABUTH (ABUTH): 125 g/ha
- Pre-emergence activity (GR80) on SORHA (SORHA): 500 g/ha
- Pre-emergence activity (GR80) on CIRAR (CIRAR): 125 g/ha
- Pre-emergence activity (GR80) on PORAL (POROL): 32 g/ha

SMILES: CC(CNC(=O)c1cccc(C(F)(F)F)c1)NC(=O)c1cccc(Cl)c1Cl (centres unmarked) [Example 50]
- Pre-emergence activity (GR80) on CHEAL (CHEAL): 32 g/ha
- Pre-emergence activity (GR80) on SOLNI (SOLNI): 125 g/ha
- Pre-emergence activity (GR80) on PANMI (PANMI): 1000 g/ha
- Pre-emergence activity (GR80) on PANDI (PANDI): 250 g/ha
- Pre-emergence activity (GR80) on AMARE (AMARE): 32 g/ha
- Pre-emergence activity (GR80) on SORVU (SORVU): * (Where herbicidal activity was evident but 80% inhibition was not achieved at the highest rate tested (typically 1000 g/ha), an asterisk (*) is shown)
- Pre-emergence activity (GR80) on ECHCG (ECHCG): * (Where herbicidal activity was evident but 80% inhibition was not achieved at the highest rate tested (typically 1000 g/ha), an asterisk (*) is shown)
- Pre-emergence activity (GR80) on CONAR (CONAR): 250 g/ha
- Pre-emergence activity (GR80) on DIGSA (DIGSA): 125 g/ha
- Pre-emergence activity (GR80) on SETFA (SETFA): 750 g/ha
- Pre-emergence activity (GR80) on DATST (DATST): 125 g/ha
- Pre-emergence activity (GR80) on BRAPP (BRAPP): 500 g/ha
- Pre-emergence activity (GR80) on ABUTH (ABUTH): 750 g/ha
- Pre-emergence activity (GR80) on SORHA (SORHA): 1000 g/ha
- Pre-emergence activity (GR80) on CIRAR (CIRAR): 64 g/ha
- Pre-emergence activity (GR80) on PORAL (POROL): 32 g/ha

SMILES: CC(CNC(=O)c1cccc(C(F)(F)F)c1)NC(=O)c1cccc(Cl)c1F (centres unmarked) [Example 49]
- Pre-emergence activity (GR80) on CHEAL (CHEAL): 64 g/ha
- Pre-emergence activity (GR80) on SOLNI (SOLNI): 125 g/ha
- Pre-emergence activity (GR80) on PANMI (PANMI): 125 g/ha
- Pre-emergence activity (GR80) on PANDI (PANDI): 64 g/ha
- Pre-emergence activity (GR80) on AMARE (AMARE): 64 g/ha
- Pre-emergence activity (GR80) on SORVU (SORVU): * (Where herbicidal activity was evident but 80% inhibition was not achieved at the highest rate tested (typically 1000 g/ha), an asterisk (*) is shown)
- Pre-emergence activity (GR80) on ECHCG (ECHCG): 500 g/ha
- Pre-emergence activity (GR80) on CONAR (CONAR): 750 g/ha
- Pre-emergence activity (GR80) on DIGSA (DIGSA): 64 g/ha
- Pre-emergence activity (GR80) on SETFA (SETFA): 125 g/ha
- Pre-emergence activity (GR80) on DATST (DATST): 64 g/ha
- Pre-emergence activity (GR80) on BRAPP (BRAPP): 500 g/ha
- Pre-emergence activity (GR80) on ABUTH (ABUTH): 64 g/ha
- Pre-emergence activity (GR80) on SORHA (SORHA): 250 g/ha
- Pre-emergence activity (GR80) on CIRAR (CIRAR): 64 g/ha
- Pre-emergence activity (GR80) on PORAL (POROL): 64 g/ha
